Experimental findings from ChEMBL document CHEMBL2331094 (Bioorg Med Chem Lett, 2013) are described below.

For orientation: EC50 means the concentration giving half of the maximal effect.

Holding throughout (format): cell-based
The target in test [1] is T1, Lysophosphatidic acid receptor 1 (Homo sapiens, UniProt Q92633). Put plainly: Intrinsic activity at human LPA1 receptor transfected in HEK293 cells after 1 hr by TGFalpha shedding assay relative to LPA.
The target of test [2] is T2, Lysophosphatidic acid receptor 6 (Homo sapiens, UniProt P43657).
T2 sequence (P43657 whole entry): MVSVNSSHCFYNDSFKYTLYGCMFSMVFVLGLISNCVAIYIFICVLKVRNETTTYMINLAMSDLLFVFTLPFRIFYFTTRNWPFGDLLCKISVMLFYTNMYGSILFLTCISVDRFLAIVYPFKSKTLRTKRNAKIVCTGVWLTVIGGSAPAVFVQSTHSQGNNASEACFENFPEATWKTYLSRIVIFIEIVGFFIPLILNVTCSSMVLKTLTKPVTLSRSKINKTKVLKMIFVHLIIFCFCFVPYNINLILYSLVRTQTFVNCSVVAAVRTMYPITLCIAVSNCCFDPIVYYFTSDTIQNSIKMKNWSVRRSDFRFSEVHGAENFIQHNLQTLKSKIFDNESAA
Put plainly: Agonist activity at human LPA6 receptor transfected in HEK293 cells after 1 hr by TGFalpha shedding assay in presence of Ki16425.

The target of test [3] is T3, Lysophosphatidic acid receptor 2 (Homo sapiens, UniProt Q9HBW0). The test is described as follows: Agonist activity at human LPA2 receptor transfected in HEK293 cells after 1 hr by TGFalpha shedding assay.
Test [4] addresses T3, Lysophosphatidic acid receptor 2. Put plainly: Intrinsic activity at human LPA2 receptor transfected in HEK293 cells after 1 hr by TGFalpha shedding assay relative to LPA.
The target in test [5] is T4, Lysophosphatidic acid receptor 6 (Homo sapiens) (UniProt P43657).
T4 sequence (whole entry): T2 sequence (P43657 whole entry)
Put plainly: Intrinsic activity at human LPA6 receptor transfected in HEK293 cells after 1 hr by TGFalpha shedding assay in presence of Ki16425 relative to LPA.

Test [6] addresses T5, Lysophosphatidic acid receptor 4 (Homo sapiens, UniProt Q99677). The test is described as follows: Intrinsic activity at human LPA4 receptor transfected in HEK293 cells after 1 hr by TGFalpha shedding assay in presence of Ki16425 relative to LPA.
Test [7] addresses T6, Lysophosphatidic acid receptor 3 (Homo sapiens, UniProt Q9UBY5).
T6 sequence (Q9UBY5 whole entry): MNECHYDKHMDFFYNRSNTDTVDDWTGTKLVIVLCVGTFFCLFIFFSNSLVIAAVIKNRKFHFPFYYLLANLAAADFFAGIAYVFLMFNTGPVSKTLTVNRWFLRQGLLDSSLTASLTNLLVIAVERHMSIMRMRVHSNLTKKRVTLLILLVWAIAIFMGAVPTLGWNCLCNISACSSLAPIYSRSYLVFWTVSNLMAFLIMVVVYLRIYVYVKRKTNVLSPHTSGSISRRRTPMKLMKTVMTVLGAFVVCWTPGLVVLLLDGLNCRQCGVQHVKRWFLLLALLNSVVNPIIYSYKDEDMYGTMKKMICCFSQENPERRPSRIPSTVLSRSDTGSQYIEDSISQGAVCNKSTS
The test is described as follows: Agonist activity at human LPA3 receptor transfected in HEK293 cells after 1 hr by TGFalpha shedding assay.

Test [8] has as its target T7, Lysophosphatidic acid receptor 5 (Homo sapiens, UniProt Q9H1C0). Put plainly: Agonist activity at human LPA5 receptor transfected in HEK293 cells after 1 hr by TGFalpha shedding assay in presence of Ki16425.
The target of test [9] is T1, Lysophosphatidic acid receptor 1. Put plainly: Agonist activity at human LPA1 receptor transfected in HEK293 cells after 1 hr by TGFalpha shedding assay.
The target of test [10] is T7, Lysophosphatidic acid receptor 5. The test is described as follows: Intrinsic activity at human LPA5 receptor transfected in HEK293 cells after 1 hr by TGFalpha shedding assay in presence of Ki16425 relative to LPA.
Test [11] deals with T5, Lysophosphatidic acid receptor 4. The test is described as follows: Agonist activity at human LPA4 receptor transfected in HEK293 cells after 1 hr by TGFalpha shedding assay in presence of Ki16425.
Test [12] addresses T8, Lysophosphatidic acid receptor 3 (Homo sapiens) (UniProt Q9UBY5).
T8 sequence (whole entry): T6 sequence (Q9UBY5 whole entry)
The test is described as follows: Intrinsic activity at human LPA3 receptor transfected in HEK293 cells after 1 hr by TGFalpha shedding assay relative to LPA.

T1 sequence (Q92633 whole entry): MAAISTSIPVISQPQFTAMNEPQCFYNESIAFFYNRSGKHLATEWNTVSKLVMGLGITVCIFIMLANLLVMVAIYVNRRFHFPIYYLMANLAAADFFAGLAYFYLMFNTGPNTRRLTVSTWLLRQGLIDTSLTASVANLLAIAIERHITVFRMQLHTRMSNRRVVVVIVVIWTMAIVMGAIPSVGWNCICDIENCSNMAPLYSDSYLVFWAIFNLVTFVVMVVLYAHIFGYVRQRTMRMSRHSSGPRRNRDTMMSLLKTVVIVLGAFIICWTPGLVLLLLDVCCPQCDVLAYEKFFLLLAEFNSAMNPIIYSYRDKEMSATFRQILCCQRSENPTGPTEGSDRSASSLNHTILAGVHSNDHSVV
T7 sequence (Q9H1C0 whole entry): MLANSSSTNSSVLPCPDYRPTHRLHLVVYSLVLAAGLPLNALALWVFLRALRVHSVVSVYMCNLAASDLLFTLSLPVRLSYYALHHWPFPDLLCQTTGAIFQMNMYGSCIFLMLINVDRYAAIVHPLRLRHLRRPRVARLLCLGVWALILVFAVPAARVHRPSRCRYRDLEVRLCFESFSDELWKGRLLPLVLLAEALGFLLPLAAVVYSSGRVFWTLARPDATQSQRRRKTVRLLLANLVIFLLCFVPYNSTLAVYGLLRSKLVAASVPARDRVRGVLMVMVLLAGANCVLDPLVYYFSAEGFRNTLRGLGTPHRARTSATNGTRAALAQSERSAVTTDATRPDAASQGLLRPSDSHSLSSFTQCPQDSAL
T3 sequence (Q9HBW0 whole entry): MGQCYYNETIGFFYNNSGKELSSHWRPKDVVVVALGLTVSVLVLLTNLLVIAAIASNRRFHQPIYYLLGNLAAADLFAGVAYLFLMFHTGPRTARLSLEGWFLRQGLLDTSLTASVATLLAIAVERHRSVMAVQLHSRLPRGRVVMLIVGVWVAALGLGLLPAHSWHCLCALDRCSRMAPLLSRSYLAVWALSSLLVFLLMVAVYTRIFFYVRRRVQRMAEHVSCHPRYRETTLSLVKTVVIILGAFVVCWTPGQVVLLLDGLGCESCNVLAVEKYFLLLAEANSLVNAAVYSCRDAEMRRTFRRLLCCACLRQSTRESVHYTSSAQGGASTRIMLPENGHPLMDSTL
T5 sequence (Q99677 whole entry): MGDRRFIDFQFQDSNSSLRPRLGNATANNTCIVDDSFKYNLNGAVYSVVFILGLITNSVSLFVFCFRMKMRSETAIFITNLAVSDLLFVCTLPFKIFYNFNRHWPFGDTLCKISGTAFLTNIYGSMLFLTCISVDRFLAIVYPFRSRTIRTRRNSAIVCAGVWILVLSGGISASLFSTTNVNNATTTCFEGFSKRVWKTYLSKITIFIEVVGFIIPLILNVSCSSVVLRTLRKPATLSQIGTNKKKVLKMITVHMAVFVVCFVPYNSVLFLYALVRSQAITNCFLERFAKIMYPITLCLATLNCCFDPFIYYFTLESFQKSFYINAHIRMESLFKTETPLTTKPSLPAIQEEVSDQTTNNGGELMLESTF

On to `CCCCCCCCCCCCCCCCCCOC[C@@H](COP(O)(O)=S)OC`, for which the Intrinsic activity in [1] is 1.2; in [4] it was 0.34; in test [5] it was 11; in test [6], 2.7; in test [10], 23; in test [12], 390. For the same molecule, the EC50 in test [2] was 0.09 µM; in test [3], 0.11 µM; in test [7], 0.00037 µM; in [8], 0.0034 µM; in test [9] it was 0.0101 µM; in [11], 0.0035 µM.
Turning to `CCCCCCCCCCCCCCCCCC(=O)OC(COC)COP(O)(O)=S` (racemic), the Intrinsic activity was found to be 1.15 in test [1]; 0.165 in [4]; 14.3 in test [5]; 3.9 in test [6]; 41 in [10]; 600 in [12]. Also, the EC50 in test [2] turned out to be 0.076 µM; in test [3], 0.146 µM; in test [7] it was 0.00021 µM; in test [8], 0.00181 µM; in test [9], 0.0122 µM; in test [11], 0.0024 µM.
As to `CCCCCCCCCCCCCCCCCCOCC(COP(O)(O)=S)OC` (racemic), the Intrinsic activity in test [1] was found to be 1.63; in [4], 0.26; in test [5] it was 27; in test [6] it was 2.2; in test [10], 114; in [12], 570. For the same molecule, the EC50 in [2] turned out to be 0.039 µM; in test [3] it was 0.1 µM; in test [7], 0.00023 µM; in [8] it was 0.00083 µM; in [9] it was 0.0084 µM; in test [11], 0.0038 µM.
Consider `CCCCCCCCCCCCCCCCCCOC[C@H](COP(O)(O)=S)OC`, for which the Intrinsic activity came to 0.57 in test [1]; 0.088 in test [4]; 10.9 in test [5]; 2.1 in test [6]; 16 in [10]; 140 in [12]. Besides, the EC50 in test [2] was found to be 0.105 µM; in test [3] it was 0.35 µM; in [7], 0.00108 µM; in test [8], 0.0061 µM; in test [9] it was 0.031 µM; in test [11], 0.0049 µM.
As for `CCCCCCCCCCCCCCCCCC(=O)OCC(COP(=O)(O)S)OC` (racemic), the Intrinsic activity in [1] amounted to 0.79; in test [4] it was 0.188; in test [5] it was 13.3; in test [6] it was 2.6; in [10], 11.1; in [12], 410. Further, the EC50 in [2] stood at 0.086 µM; in [3] it was 0.161 µM; in test [7] it was 0.00028 µM; in test [8], 0.0063 µM; in test [9], 0.0165 µM; in test [11] it was 0.0033 µM.
Regarding `CCCCCCCCCCCCCCCCCC(=O)OC[C@H](COP(O)(O)=S)OC`, the Intrinsic activity in test [1] was 0.61; in [4] it was 0.178; in [5], 19.3; in test [6], 1.6; in test [10], 8.4; in test [12], 260. Further, the EC50 in [2] was 0.058 µM; in [3], 0.149 µM; in test [7], 0.00044 µM; in test [8], 0.0082 µM; in test [9] it was 0.024 µM; in test [11] it was 0.0049 µM.
On to `CCCCCCCCCCCCCCCCCC(=O)OC[C@@H](COP(O)(O)=S)OC`, for which the Intrinsic activity in [1] stood at 0.94; in [4] it was 0.25; in test [5] it was 13.1; in test [6], 3.1; in [10], 14.8; in test [12], 500. Moreover, the EC50 in test [2] was found to be 0.079 µM; in [3], 0.112 µM; in test [7] it was 0.00027 µM; in test [8] it was 0.0051 µM; in test [9] it was 0.0147 µM; in [11] it was 0.0027 µM.
For the molecule `CCCCCCCCCCCCCCCCCOC(COC)COP(O)(O)=S` (racemic), the Intrinsic activity in [1] was 1.29; in test [4], 0.3; in test [5] it was 15.1; in test [6], 2; in [10], 26; in test [12], 340. The EC50 in test [2] is 0.078 µM; in [3] it was 0.117 µM; in test [7], 0.00039 µM; in test [8], 0.003 µM; in [9], 0.0111 µM; in test [11], 0.0045 µM.
Consider `CCCCCCCCCCCCCCCCOC(COC)COP(O)(O)=S` (configuration not stated), for which the Intrinsic activity in [1] was 0.38; in [4] it was 0.046; in test [5], 10.9; in [6] it was 2.1; in [10] it was 300; in test [12], 300. Moreover, the concentration giving a half-maximal response (EC50) was determined as 0.066 µM in test [2]; 0.116 µM in test [3]; 0.00036 µM in test [7]; 0.00026 µM in [8]; 0.026 µM in test [9]; 0.0038 µM in test [11].
For the molecule `CCCCCCCCCCCCCCCC(=O)OC[C@@H](O)COP(=O)(O)O`, the Intrinsic activity was found to be 0.24 in test [1]; 0.092 in test [4]; 0.25 in [5]; 0.14 in test [6]; 1.04 in test [10]; 0.102 in test [12]. For the same molecule, the EC50 in test [2] came to 0.93 µM; in test [3], 0.29 µM; in test [7] it was 0.58 µM; in [8], 0.068 µM; in [9], 0.071 µM; in test [11], 0.084 µM.
Consider `CCCCCCCC/C=C\CCCCCCCC(=O)OC[C@@H](O)COP(=O)(O)O` [LYSOPHOSPHATIDIC ACID], for which the Intrinsic activity in test [1], in test [4], in [5], in test [6], in test [10] and in test [12] was 1 each time. In test [9], this molecule came in with an EC50 of 0.018 µM.
